Legend:
[1] = tested on: T1, 2,4-dichlorophenol-6-monooxygenase (24DCPM); test: spectrophotometric NAD(P)H consumption at […] nm, Michaelis-Menten fit; format: biochemical, Cupriavidus sp. DSPFs; settings: 50 µM 2,4-dichlorophenol; phosphate buffer 50 mM pH 7.5; 6.25 µM FAD; read-out: Km (μM) / I^a
T1 construct: gene tfdB; homotetramer ~255 kDa, subunit ~65 kDa

[2] = tested on: T1, 2,4-dichlorophenol-6-monooxygenase (24DCPM); test: spectrophotometric NAD(P)H consumption at […] nm, uncompetitive substrate inhibition fit; format: biochemical, Cupriavidus sp. DSPFs; settings: 200 µM NADH; phosphate buffer 50 mM pH 7.5; 6.25 µM FAD; read-out: Km (μM) / I^a
[3] = molecular target: T1, 2,4-dichlorophenol-6-monooxygenase (24DCPM); test: as above; format: biochemical, Cupriavidus sp. DSPFs; settings: substrate inhibition constant; 200 µM NADH; phosphate buffer 50 mM pH 7.5; 6.25 µM FAD
[4] = molecular target: 2,4-dichlorophenol-6-monooxygenase from Cupriavidus sp. strain DSPFs (Cupriavidus sp. strain DSPFs); test: SEC; ENrich SEC 650 column (24 mL) in 50 mM potassium phosphate buffer pH 7.5, 4°C; calibrated with mass markers from 12.4 to 669 kDa; native mass from log(mol mass) versus Ve/V0, compared with the subunit mass from SDS-PAGE

NC(=O)C1=CN([C@@H]2O[C@H](COP(=O)(O)OP(=O)(O)OC[C@H]3O[C@@H](n4cnc5c(N)ncnc54)[C@H](OP(=O)(O)O)[C@@H]3O)[C@@H](O)[C@H]2O)C=CC1 [NADPH]
Km [1]: 46.8 ± 6 µM

NC(=O)C1=CN([C@@H]2O[C@H](COP(=O)(O)OP(=O)(O)OC[C@H]3O[C@@H](n4cnc5c(N)ncnc54)[C@H](O)[C@@H]3O)[C@@H](O)[C@H]2O)C=CC1 [NADH]
Km [1]: 205 ± 47 µM

Oc1ccc(Cl)cc1Cl [2,4-DCP, 2,4-dichlorophenol]
Km [2]: 3.1 ± 0.8 µM
Ki (μM) / I [3]: 374 ± 80 µM

2,4-dichlorophenol-6-monooxygenase from Cupriavidus sp. strain DSPFs (enzyme)
stoichiometry N [4]: 4

Reference: publication PMC12584615, “Degradation of 2,4-D by plant growth-promoting Cupriavidus sp. DSPFs: role in mitigating herbicide toxicity in soil and enhancing crop production” (Microbiology Spectrum, 2025)
